Data reported in publication PMC4306533, “Distinct Features of Cap Binding by eIF4E1b Proteins” (Journal of Molecular Biology, 2015).

Assays:
[1] = molecular target: T1, XeIF4E1a (Xenopus laevis, UniProt P48597); test: time-synchronized fluorescence titration of cap analogue binding; conditions: for ΔΔG^o − glycerol XeIF4E1a: without glycerol; for Kas + glycerol XeIF4E1a / Kas − glycerol XeIF4E1a: equilibrium association constant; for Kas + glycerol XeIF4E1a / ΔΔG^o + glycerol XeIF4E1a: 10% glycerol; for Kas − glycerol XeIF4E1a: buffer without glycerol
T1 construct: made in house; host or cells: E. coli Rosetta2(DE3)
T1 sequence (P48597 whole entry): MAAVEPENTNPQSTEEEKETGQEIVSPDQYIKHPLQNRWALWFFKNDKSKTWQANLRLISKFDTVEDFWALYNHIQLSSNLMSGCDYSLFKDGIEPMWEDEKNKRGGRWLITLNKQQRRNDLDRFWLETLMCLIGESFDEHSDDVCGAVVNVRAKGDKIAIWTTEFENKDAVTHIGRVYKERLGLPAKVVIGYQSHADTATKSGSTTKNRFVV
Description: (§1) The time-synchronized fluorescence titration method, widely used to determine the affinity constants of cap–eIF4E complexes [[20,22–26]], measures the quenching of the intrinsic fluorescence of tryptophan residues due to cap binding (Fig. S2). Knowledge of the equilibrium association constant Kas enables the calculation of the free-energy changes involved in the interaction between eIF4E and ligand, according to the standard equation ΔG° = − RTlnKas.
(§2) For human eIF4E1a and eIF4E1b and also for Xenopus eIF4E1a and its mutated forms, measurements were carried out using 0.1 μM protein in 50 mM Hepes/KOH (pH 7.2), 134.5 mM KCl, 0.5 mM EDTA and 1 mM DTT. For Xenopus eIF4E1b(ΔN27), the concentration was 0.2 μM and glycerol was added to the buffer to 10% (v/v) final concentration. […] Fluorescence of measured samples was excited at 280 nm (2.5 nm bandwidth) and detected at 337 nm or 330 nm (4 nm bandwidth), thus reducing the signal originated from the free cap analogues. Measurements were carried out on a LS-55 spectrofluorometer (Perkin Elmer Co.) using freshly prepared proteins, and the fluorescence intensities were corrected for sample dilution and the inner filter effect.
(§3) Equilibrium association constants (Kas) were determined by fitting the theoretical dependence of fluorescence intensity on the total concentration of the cap analogue to the experimental data points, according to the equation described previously (see Ref. [22] and Fig. S2c).
(§4) The final Kas was calculated as a weighted average of 2–6 independent titrations with the weights taken as the reciprocal of the numerical standard deviation squared. Numerical, nonlinear least-squares regression analysis was performed using Origin 6.0 (Microcal Software Inc.). Obtained association constants were used to determine the Gibbs free energy according to the standard equation ΔG° = − RTlnKas.

[2] = test system: XeIF4E1a; test: as above; parameters: species or system Xenopus laevis; conditions: without glycerol
Description: as §1, §2, §3, §4

[3] = molecular target: T2, heIF4E1a (Homo sapiens, UniProt P06730); test: as above; conditions: for ΔΔG^o − glycerol heIF4E1a: without glycerol; for Kas − glycerol heIF4E1a: equilibrium association constant, buffer without glycerol
T2 construct: made in house; host or cells: E. coli Rosetta2(DE3)
T2 sequence (P06730 whole entry): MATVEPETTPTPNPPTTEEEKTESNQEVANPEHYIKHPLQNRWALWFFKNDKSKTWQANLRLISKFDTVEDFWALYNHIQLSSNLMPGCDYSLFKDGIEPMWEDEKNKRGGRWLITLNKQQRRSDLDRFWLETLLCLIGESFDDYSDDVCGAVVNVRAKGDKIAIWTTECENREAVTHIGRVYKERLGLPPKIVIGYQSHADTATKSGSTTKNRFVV
Description: as §1, §2, §3, §4

[4] = molecular target: T3, heIF4E1b (Homo sapiens, UniProt A6NMX2); test: as above; conditions: for Kas − glycerol heIF4E1b: equilibrium association constant, buffer without glycerol; for ΔΔG^o − glycerol heIF4E1b: change relative to m^7GTP, without glycerol
T3 construct: made in house; host or cells: E. coli Rosetta2(DE3)
T3 sequence (A6NMX2 1-242): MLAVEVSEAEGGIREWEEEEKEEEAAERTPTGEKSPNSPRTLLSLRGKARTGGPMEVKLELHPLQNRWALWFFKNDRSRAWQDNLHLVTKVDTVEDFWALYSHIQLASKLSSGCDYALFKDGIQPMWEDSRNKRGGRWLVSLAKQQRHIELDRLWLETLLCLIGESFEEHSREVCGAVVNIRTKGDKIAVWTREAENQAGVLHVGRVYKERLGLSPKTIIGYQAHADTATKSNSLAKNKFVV
Description: as §1, §2, §3, §4

[5] = test system: heIF4E1b; test: as above; parameters: species or system human; conditions: without glycerol
Description: as §1, §2, §3, §4

[6] = test system: XeIF4E1bΔN27; test: as above; parameters: species or system Xenopus laevis; conditions: for Ratio Kas (X4E1a) to Kas (X4E1bΔN27) / Kas + glycerol XeIF4E1bΔN27 / ΔΔG^o + glycerol XeIF4E1bΔN27: 10% glycerol; for Kas + glycerol XeIF4E1bΔN27: equilibrium association constant; for ΔΔG^o + glycerol XeIF4E1bΔN27: change relative to m^7GTP
Description: as §1, §2, §3, §4

[7] = molecular target: T4, X4E1a1 (E101S) (Xenopus laevis, UniProt P48597, E101S); test: fluorescence titration, XeIF4E1a mutant; type: binding; conditions: mutant (E101S) of XeIF4E1a
T4 construct: made in house; host or cells: E. coli Rosetta2(DE3)
T4 sequence (P48597 whole entry E101S): as the sequence (P48597 whole entry) above, with E101S counted along it
Description: (§5) We tested the effect on cap-binding activity of these positions in the fluorescence assay with six mutated recombinant versions of Xenopus eIF4E1a (Fig. S4). The amino acids were introduced in XeIF4E1a sequentially in the order: E101S/K102R/S195A/M82S/T206L/T207S (numbering of the XeIF4E1a sequence is shifted backward by 4 amino acids relative to XeIF4E1b). […] The biggest contribution to the weaker cap binding of XeIF4E1a, in each case about 20%, resulted from changing Glu101 to Ser and Thr206 to Leu coupled with Thr207 to Ser, with the remaining mutations having only minor effects. […] Glu101 is a solvent-accessible amino acid and is proximal to Trp98 in the S3-S4 loop. […] Attenuation of the cap-binding affinity of XeIF4E1a resulting from mutating Thr206 and Thr207 is consistent with our results mentioned above showing significant influence of C-terminal loop residues on binding phosphate and the second nucleotide.
(§6) For human eIF4E1a and eIF4E1b and also for Xenopus eIF4E1a and its mutated forms, measurements were carried out using 0.1 μM protein in 50 mM Hepes/KOH (pH 7.2), 134.5 mM KCl, 0.5 mM EDTA and 1 mM DTT. For Xenopus eIF4E1b(ΔN27), the concentration was 0.2 μM and glycerol was added to the buffer to 10% (v/v) final concentration. […] The gradually increasing concentration of cap analogue quenches protein fluorescence without shifting the spectrum maximum, while at high concentrations, the fluorescence signal of free cap analogue dominates over the fluorescence from other solution components including free eIF4E and eIF4E in complex with cap (Fig. S2a). Fluorescence of measured samples was excited at 280 nm (2.5 nm bandwidth) and detected at 337 nm or 330 nm (4 nm bandwidth), thus reducing the signal originated from the free cap analogues. Measurements were carried out on a LS-55 spectrofluorometer (Perkin Elmer Co.) using freshly prepared proteins, and the fluorescence intensities were corrected for sample dilution and the inner filter effect.
(§7) Equilibrium association constants (Kas) were determined by fitting the theoretical dependence of fluorescence intensity on the total concentration of the cap analogue to the experimental data points, according to the equation described previously (see Ref. [22] and Fig. S2c). […] Along with Kas and the concentration of the active protein [P0^act], other parameters such as fL and ∆f = fPact − fPL are also gained from the fit, where fL represents the fluorescence efficiency of free cap analogue and ∆f represents the difference between the fluorescence efficiencies of the apo-protein and the complex (Fig. S2c).
as §4

[8] = molecular target: T5, X4E1a1’ (K102R) (Xenopus laevis, UniProt P48597, K102R); test: fluorescence titration, XeIF4E1a mutant; type: binding; conditions: mutant (K102R) of XeIF4E1a
T5 construct: made in house; host or cells: E. coli Rosetta2(DE3)
T5 sequence (P48597 whole entry K102R): as the sequence (P48597 whole entry) above, with K102R counted along it
Description: as §5, §6, §7, §4

[9] = molecular target: T6, X4E1a2 (E101S/K102R) (Xenopus laevis, UniProt P48597, E101S/K102R); test: fluorescence titration, XeIF4E1a mutant; type: binding; conditions: mutant (E101S/K102R) of XeIF4E1a
T6 construct: made in house; host or cells: E. coli Rosetta2(DE3)
T6 sequence (P48597 whole entry E101S/K102R): as the sequence (P48597 whole entry) above, with E101S, K102R counted along it
Description: as §5, §6, §7, §4

[10] = molecular target: T7, X4E1a3 (E101S/K102R/S195A) (Xenopus laevis, UniProt P48597, E101S/K102R/S195A); test: fluorescence titration, XeIF4E1a mutant; type: binding; conditions: mutant (E101S/K102R/S195A) of XeIF4E1a
T7 construct: made in house; host or cells: E. coli Rosetta2(DE3)
T7 sequence (P48597 whole entry E101S/K102R/S195A): as the sequence (P48597 whole entry) above, with E101S, K102R, S195A counted along it
Description: as §5, §6, §7, §4

[11] = molecular target: T8, X4E1a4 (E101S/K102R/S195A/M82S) (Xenopus laevis, UniProt P48597, E101S/K102R/M82S/S195A); test: fluorescence titration, XeIF4E1a mutant; type: binding; conditions: mutant (E101S/K102R/S195A/M82S) of XeIF4E1a
T8 construct: made in house; host or cells: E. coli Rosetta2(DE3)
T8 sequence (P48597 whole entry M82S/E101S/K102R/S195A): as the sequence (P48597 whole entry) above, with M82S, E101S, K102R, S195A counted along it
Description: as §5, §6, §7, §4

[12] = molecular target: T9, X4E1a6 (E101S/K102R/S195A/M82S/T206L/T207S) (Xenopus laevis, UniProt P48597, E101S/K102R/M82S/S195A/T206L/T207S); test: fluorescence titration, XeIF4E1a mutant; type: binding; conditions: for Kas X4E1a6: mutant (E101S/K102R/S195A/M82S/T206L/T207S) of XeIF4E1a
T9 construct: made in house; host or cells: E. coli Rosetta2(DE3)
T9 sequence (P48597 whole entry M82S/E101S/K102R/S195A/T206L/T207S): as the sequence (P48597 whole entry) above, with M82S, E101S, K102R, S195A, T206L, T207S counted along it
Description: as §5, §6, §7, §4

Row | Kas + glycerol XeIF4E1a [1] [μM^− 1] | Kas − glycerol XeIF4E1a [1] [μM^− 1] | Ratio Kas (h4E1a) to Kas (X4E1a) [2] | Kas − glycerol heIF4E1a [3] [μM^− 1] | Kas − glycerol heIF4E1b [4] [μM^− 1] | Ratio Kas (h4E1a) to Kas (h4E1b) [5] | Ratio Kas (X4E1a) to Kas (X4E1bΔN27) [6] | Kas + glycerol XeIF4E1bΔN27 [6] [μM^− 1] | Kas X4E1a1 [7] [µM⁻¹] | Kas X4E1a1’ [8] [µM⁻¹] | Kas X4E1a2 [9] [µM⁻¹] | Kas X4E1a3 [10] [µM⁻¹] | Kas X4E1a4 [11] [µM⁻¹] | Kas X4E1a6 [12] [µM⁻¹] | ΔΔG^o + glycerol XeIF4E1a ([1]; change relative to m^7GTP) [kcal/mol] | ΔΔG^o − glycerol XeIF4E1a ([1]; change relative to m^7GTP) [kcal/mol] | ΔΔG^o − glycerol heIF4E1a ([3]; change relative to m^7GTP) [kcal/mol] | ΔΔG^o − glycerol heIF4E1b [4] [kcal/mol] | ΔΔG^o + glycerol XeIF4E1bΔN27 [6] [kcal/mol] | other results | SMILES
1 | 6.04 ± 0.92 | 10.62 ± 0.98 | 1.58 | 16.79 ± 0.56 | 35.4 ± 1.6 | 0.47 | 1.38 | 4.36 ± 0.18 | 9.01 ± 0.21 | 11.22 ± 0.65 | 8.86 ± 0.16 | 9.08 ± 0.33 | 11.66 ± 0.64 | 7.09 ± 0.18 |  |  |  |  |  | ΔΔG^o − glycerol XeIF4E1a ([1]; change relative to m^7GDP): 0.042 ± 0.059 kcal/mol; ΔΔG^o − glycerol heIF4E1a ([3]; change relative to m^7GDP): 0.033 ± 0.022 kcal/mol; fold increase of association constant compared with m^7GDP ([4]; benzyl substitution): approximately 5 fold; fold increase of association constant compared with m^7GDP ([6]; benzyl substitution): ~2 fold; Kas + glycerol X4E1a6 ([12]; 10% glycerol, Fig. 5d): 3.57 ± 0.24 µM⁻¹ | Nc1nc2c(c(=O)[nH]1)n(Cc1ccccc1)c[n+]2[C@@H]1O[C@H](COP(=O)(O)OP(=O)(O)O)[C@@H](O)[C@H]1O [bn^7GDP]
2 | 4.97 ± 0.22 | 7.89 ± 0.57 | 1.65 | 13.04 ± 0.31 | 7.34 ± 0.34 | 1.78 | 2.20 | 2.26 ± 0.20 | 7.14 ± 0.63 | 7.38 ± 0.18 | 7.132 ± 0.088 | 6.23 ± 0.17 | 8.21 ± 0.51 | 4.41 ± 0.16 | 0.900 ± 0.035 | 0.984 ± 0.050 | 0.965 ± 0.045 | 0.639 ± 0.045 | 0.722 ± 0.059 | fold decrease of association constant relative to m^7GTP ([1]; N^7-methyl replaced by ethyl): approximately 5 fold; fold decrease of association constant relative to m^7GTP ([3]; N^7-methyl replaced by ethyl): approximately 5 fold; fold decrease of association constant relative to m^7GTP ([4]; N^7-methyl replaced by ethyl): 3 fold; fold decrease of association constant relative to m^7GTP ([6]; N^7-methyl replaced by ethyl): 3 fold | CCn1c[n+]([C@@H]2O[C@H](COP(=O)(O)OP(=O)(O)OP(=O)(O)O)[C@@H](O)[C@H]2O)c2nc(N)[nH]c(=O)c21 [et^7GTP]
3 | 0.176 ± 0.011 | 0.295 ± 0.021 | 1.22 | 0.362 ± 0.008 | 0.272 ± 0.009 | 1.33 | 0.70 | 0.253 ± 0.046 | 0.350 ± 0.015 | 0.268 ± 0.012 | 0.306 ± 0.046 | 0.193 ± 0.019 | 0.317 ± 0.054 | 0.185 ± 0.012 | 2.844 ± 0.042 | 2.897 ± 0.051 | 3.052 ± 0.045 | 2.557 ± 0.041 | 2.00 ± 0.11 |  | CN(C)c1nc2c(c(=O)[nH]1)[n+](C)cn2[C@@H]1O[C@H](COP(=O)(O)OP(=O)(O)OP(=O)(O)O)[C@@H](O)[C@H]1O [m^2,2,7GTP]
